Columns and labels:
Assay in all cases: MIC of Ceftazidime in presence of test compound, agar dilution (CLSI)
Format in all cases: cell-based
E. coli M50 = settings: compound present at 4 mcg/ml
Experimental: (§1) The biological activity of representative compounds according to the invention against various bacterial strains was investigated. In a typical study, overnight grown bacterial cultures were diluted appropriately and inoculated on the agar media containing doubling dilutions of the test compounds. Observation for growth or no growth was performed after 16-20 hours of incubation at 35±2° C. in ambient air. The overall procedure was performed as per Clinical and Laboratory Standards Institute (CLSI) recommendations (Clinical and Laboratory Standards Institute (CLSI), Performance Standards for Antimicrobial Susceptibility Testing, 20th Informational Supplement, M 100-S20, Volume 30, No. 1, 2010).
(§2) The antibacterial activity of representative compounds according to the invention was also investigated in combination with at least one antibacterial agent using the above study protocol and the results are given Table 3 and 4.

E. coli NCTC 13351 = settings: compound present at 4 mcg/ml, Table 3
Experimental: as §1, §2

E. coli 7MP = settings: compound present at 4 mcg/ml
Experimental: as §1, §2

K. pneumoniae H 522 = settings: K. pneumoniae H 522, KPC ESBL; compound present at 4 mcg/ml; Table 4
Experimental: as §1, §2

A. baumannii 13304 = settings: A. baumannii 13304, Class D ESBL; compound present at 4 mcg/ml; Table 4
Experimental: as §1, §2

E. coli W 13352 = settings: E. coli W 13352, Class A ESBL; compound present at 4 mcg/ml; Table 4
Experimental: as §1, §2

A. baumannii 13301 = settings: A. baumannii 13301, Class D ESBL; compound present at 4 mcg/ml; Table 4
Experimental: as §1, §2

E. coli B 89 = settings: E. coli B 89, Class C ESBL; compound present at 4 mcg/ml; Table 4
Experimental: as §1, §2

K. pneumoniae H 521 = settings: K. pneumoniae H 521, KPC ESBL; compound present at 4 mcg/ml; Table 4
Experimental: as §1, §2

E. coli W 13351 = settings: E. coli W 13351, Class A ESBL; compound present at 4 mcg/ml; Table 4
Experimental: as §1, §2

K. pneumoniae H 520 = settings: K. pneumoniae H 520, KPC ESBL; compound present at 4 mcg/ml; Table 4
Experimental: as §1, §2

E. coli W 13353 = settings: E. coli W 13353, Class A ESBL; compound present at 4 mcg/ml; Table 4
Experimental: as §1, §2

Row | SMILES | Activity of Ceftazidime (MIC) in presence of compound (E. coli M50; E. coli M50, Table 3) | Activity of Ceftazidime (MIC) in presence of compound (E. coli NCTC 13351) | Activity of Ceftazidime (MIC) in presence of compound (E. coli 7MP; Table 3) | other results
1 | CCc1nnc([C@H]2CC[C@@H]3CN2C(=O)N3OS(=O)(=O)[O-])o1.[Na+] (relative stereo) [Example 2, Sodium salt of trans-6-(sulphooxy)-2-(5-ethyl-[1,3,4]-oxadiazol-2-yl)-7-oxo-1,6-diazabicyclo[3.2.1]-octane] | 16 µg/mL | 16 µg/mL | 32 µg/mL | 
2 | O=C1N2C[C@@H](CC[C@@H]2c2nnc(C(F)(F)F)o2)N1OS(=O)(=O)[O-].[Na+] (relative stereo) [Example 3, Sodium salt of trans-6-(sulphooxy)-2-(5-trifluoromethyl-[1,3,4]-oxadiazol-2-yl)-7-oxo-1,6-diazabicyclo[3.2.1]-octane] | 16 µg/mL | 16 µg/mL | 32 µg/mL | 
3 | NC(=O)c1nnc([C@H]2CC[C@@H]3CN2C(=O)N3OS(=O)(=O)O)o1.[Na] (relative stereo) [Example 4, Sodium salt of trans-6-(sulphooxy)-2-(5-carboxamido-[1,3,4]-oxadiazol-2-yl)-7-oxo-1,6-diazabicyclo[3.2.1]-octane] | 1 µg/mL | 0.5 µg/mL | 2 µg/mL | Activity of Ceftazidime (MIC) in presence of compound (E. coli M50; E. coli M 50, Class C ESBL, Table 4): 1 µg/mL; Activity of Ceftazidime (MIC) in presence of compound (K. pneumoniae H 522): 1 µg/mL; Activity of Ceftazidime (MIC) in presence of compound (A. baumannii 13304): 8 µg/mL; Activity of Ceftazidime (MIC) in presence of compound (E. coli W 13352): 1 µg/mL; Activity of Ceftazidime (MIC) in presence of compound (A. baumannii 13301): >32 µg/mL; Activity of Ceftazidime (MIC) in presence of compound (E. coli 7MP; Class C ESBL, Table 4): 2 µg/mL; Activity of Ceftazidime (MIC) in presence of compound (E. coli B 89): 1 µg/mL; Activity of Ceftazidime (MIC) in presence of compound (K. pneumoniae H 521): 1 µg/mL; Activity of Ceftazidime (MIC) in presence of compound (E. coli W 13351): 0.5 µg/mL; Activity of Ceftazidime (MIC) in presence of compound (K. pneumoniae H 520): 1 µg/mL; Activity of Ceftazidime (MIC) in presence of compound (E. coli W 13353): 0.25 µg/mL
4 | O=C1N2C[C@@H](CC[C@@H]2c2nnc(-c3ccon3)o2)N1OS(=O)(=O)[O-].[Na+] (relative stereo) [Example 5, Sodium salt of trans-6-(sulphooxy)-2-(5-(isooxazol-3-yl)-[1,3,4]-oxadiazol-2-yl)-7-oxo-1,6-diazabicyclo[3.2.1]-octane] | 4 µg/mL | 4 µg/mL | 16 µg/mL | 
5 | O=C1N2C[C@@H](CC[C@@H]2c2nnc(-c3ccco3)o2)N1OS(=O)(=O)[O-].[Na+] (relative stereo) [Example 6, Sodium salt of trans-6-(sulphooxy)-2-(5-(furan-2-yl)-[1,3,4]-oxadiazol-2-yl)-7-oxo-1,6-diazabicyclo[3.2.1]-octane] | 16 µg/mL | 32 µg/mL | 32 µg/mL | 
6 | O=C1N2C[C@@H](CC[C@@H]2c2nnc(-c3ccccc3)o2)N1OS(=O)(=O)O.[Na] (relative stereo) [Example 7, Sodium salt of trans-6-(sulphooxy)-2-(5-phenyl-[1,3,4]-oxadiazol-2-yl)-7-oxo-1,6-diazabicyclo[3.2.1]-octane] | 16 µg/mL | 16 µg/mL | 32 µg/mL | 
7 | O=C1N2C[C@@H](CC[C@@H]2c2nnc(-c3ccccn3)o2)N1OS(=O)(=O)[O-].[Na+] (relative stereo) [Example 8, Sodium salt of trans-6-(sulphooxy)-2-(5-(pyridin-2-yl)-[1,3,4]-oxadiazol-2-yl)-7-oxo-1,6-diazabicyclo[3.2.1]-octane] | 16 µg/mL | 16 µg/mL | 32 µg/mL | 
8 | NC(=O)c1cccc(-c2nnc([C@H]3CC[C@@H]4CN3C(=O)N4OS(=O)(=O)O)o2)n1.[Na] (relative stereo) [Example 9, Sodium salt of trans-6-(sulphooxy)-2-(5-(6-carboxamido-pyridin-2-yl)-[1,3,4]-oxadiazol-2-yl)-7-oxo-1,6-diazabicyclo[3.2.1]-octane] | 8 µg/mL | 2 µg/mL | >32 µg/mL | 
9 | O=C1N2C[C@@H](CC[C@@H]2c2nnc(-c3cn4c(n3)COCC4)o2)N1OS(=O)(=O)O.[Na] (relative stereo) [Example 10, Sodium salt of trans-6-(sulphooxy)-2-(5-(5,6-dihydro-8H-imidazo[2,1-c][1,4]-oxazin-2-yl)-[1,3,4]-oxadiazol-2-yl)-7-oxo-1,6-diazabicyclo[3.2.1]-octane] | 16 µg/mL | 16 µg/mL | 32 µg/mL | 
10 | O=C1N2C[C@@H](CC[C@@H]2c2nnc(CN3CCOCC3)o2)N1OS(=O)(=O)O.[Na] (relative stereo) [Example 11, Sodium salt of trans-6-(sulphooxy)-2-(5-(morpholino-4-methyl)-[1,3,4]-oxadiazol-2-yl)-7-oxo-1,6-diazabicyclo[3.2.1]-octane] | 2 µg/mL | 1 µg/mL | 32 µg/mL | 
11 | O=C(c1nnc([C@H]2CC[C@@H]3CN2C(=O)N3OS(=O)(=O)[O-])o1)N1CCOCC1.[Na+] (relative stereo) [Example 12, Sodium salt of trans-sulfuric acid mono-[2-(5-(morpholin-4-yl-carbonyl)-[1,3,4]-oxadiazol-2-yl)-7-oxo-1,6-diazabicyclo[3.2.1]-octan-6-yl]ester] | 8 µg/mL | 2 µg/mL | 16 µg/mL | 

— patent US9127004B2, “Nitrogen containing heterocyclic compounds” (Wockhardt Ltd., priority 2011, dated 2015)
